Assay results taken from patent publication US20060069132A1, “Azolecarboxamide herbicides” (priority 2004, published 2006).

Assays:
[1] = tested on: barnyardgrass; test: Test B pre-/postemergence herbicide test; type: in vivo, Echinochloa crus-galli
Method in brief: (§1)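 Plants compared with untreated controls 13–15 days post-treatment and given a visual 0–100 injury score. Applications: preemergence to seeds; postemergence at 1- to 4-leaf (2–18 cm); paddy species flooded, 2-leaf stage. Vehicle non-phytotoxic, surfactant included.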

[2] = tested on: rice; test: Test B pre-/postemergence herbicide test; type: in vivo, Oryza sativa; conditions: preemergence, 125 g ai/ha; 0 to 100 scale, 0 is no effect, 100 is complete control
Text: Seeds selected from barnyardgrass (Echinochloa crus-galli (L.) Beauv.), Surinam grass (Urochloa decumbens (Staph) R. D. Webster, previously named Brachiaria decumbens Stapf), cocklebur (Xanthium strumarium L.), corn (Zea mays L.), large crabgrass (Digitaria sanguinalis (L.) Scop.), giant foxtail (Setaria faberi Herim.), lambsquarters (Chenopodium album L.), morningglory (Ipomoea coccinea L.), pigweed (Amaranthus retroflexus L.), rice (Oryza sativa L.) and velvetleaf (Abutilon theophrasti Medik.) were planted and treated preemergence with test chemicals formulated in a non-phytotoxic solvent mixture which included a surfactant.
At the same time, plants selected from these crop and weed species and also blackgrass (Alopecurus myosuroides Huds.), wheat (Triticum aestivum L.) and wild oat (Avena fatua L.) were treated with postemergence applications of test chemicals formulated in the same manner. Plants ranged in height from 2 to 18 cm (1- to 4-leaf stage) for postemergence treatments. Plant species in the flooded paddy test consisted of rice (Oryza sativa L.), small flower umbrella sedge (Cyperus difformis L.), ducksalad (Heteranthera limosa (Sw.) Willd.) and barnyardgrass (Echinochloa crus-galli (L.) Beauv.) grown to the 2-leaf stage for testing. Treated plants and controls were maintained in a greenhouse for 13 to 15 days, after which time all species were compared to controls and visually evaluated. Plant response ratings, summarized in Table B, are based on a scale of 0 to 100 where 0 is no effect and 100 is complete control. A dash (-) response means no test result.

[3] = tested on: velvetleaf; test: Test B pre-/postemergence herbicide test; type: in vivo, Abutilon theophrasti
Method in brief: (§2)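 Seeds were planted and treated preemergence with compounds formulated in a non-phytotoxic solvent mixture containing surfactant, while plants at the 1- to 4-leaf stage (2 to 18 cm) received postemergence sprays. Flooded paddy plants were grown to the 2-leaf stage. After 13 to 15 days in a greenhouse, injury was visually rated 0–100 against untreated controls.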

[4] = tested on: morningglory; test: Test B pre-/postemergence herbicide test; type: in vivo, Ipomoea coccinea
Method in brief: as §1

[5] = tested on: barnyardgrass; test: Test B flooded paddy test; type: in vivo, Echinochloa crus-galli; conditions: 1000 g ai/ha, visual rating, scale 0 to 100 (0 no effect, 100 complete control), 13 to 15 days
Method in brief: (§3)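 Formulated test chemicals went onto postemergence plants measuring 2 to 18 cm, at one to four leaves. For the paddy assay, species had reached two leaves. Scoring took place 13–15 days later by eye, relative to untreated plants, using 0 for no effect up to 100 for full control.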

[6] = tested on: lambsquarters; test: Test B pre-/postemergence herbicide test; type: in vivo, Chenopodium album
Method in brief: as §2

[7] = tested on: wheat; test: Test B postemergence herbicide test; type: in vivo, Triticum aestivum; set-up: key to Wheat plant response rating: 0 = no effect, 100 = complete control; conditions: scale 0 (no effect) to 100 (complete control)
Method in brief: (§4)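 Visual ratings, 0 (no effect) to 100 (complete control), made versus controls after 13–15 d greenhouse. Paddy plants treated at 2-leaf stage; postemergence plants at 1- to 4-leaf stage, 2–18 cm tall.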

[8] = tested on: Surinam grass; test: Test B pre-/postemergence herbicide test; type: in vivo, Urochloa decumbens
Method in brief: as §2

[9] = tested on: rice; test: Test B flooded paddy test; type: in vivo, Oryza sativa; conditions: 1000 g ai/ha, visual rating, scale 0 to 100 (0 no effect, 100 complete control), 13 to 15 days
Method in brief: as §4

[10] = tested on: large crabgrass; test: Test B pre-/postemergence herbicide test; type: in vivo, Digitaria sanguinalis
Method in brief: as §2

[11] = tested on: giant foxtail; test: Test B pre-/postemergence herbicide test; type: in vivo, Setaria faberi
Method in brief: as §2

[12] = tested on: blackgrass; test: Test B postemergence herbicide test; type: in vivo, Alopecurus myosuroides; conditions: scale 0 (no effect) to 100 (complete control)
Method in brief: as §3

[13] = tested on: wild oat; test: Test B postemergence herbicide test; type: in vivo, Avena fatua; conditions: scale 0 (no effect) to 100 (complete control)
Method in brief: as §4

[14] = tested on: ducksalad; test: Test B flooded paddy test; type: in vivo, Heteranthera limosa; conditions: 1000 g ai/ha, visual rating, scale 0 to 100 (0 no effect, 100 complete control), 13 to 15 days
Method in brief: as §3

[15] = tested on: pigweed; test: Test B pre-/postemergence herbicide test; type: in vivo, Amaranthus retroflexus
Method in brief: as §2

[16] = tested on: small flower umbrella sedge; test: Test B flooded paddy test; type: in vivo, Cyperus difformis; conditions: 1000 g ai/ha, visual rating, scale 0 to 100 (0 no effect, 100 complete control), 13 to 15 days
Method in brief: as §3

[17] = tested on: cocklebur; test: Test B pre-/postemergence herbicide test; type: in vivo, Xanthium strumarium
Method in brief: as §1

[18] = tested on: corn; test: Test B pre-/postemergence herbicide test; type: in vivo, Zea mays
Method in brief: as §2

[19] = Postemergence, 500 g ai/ha, visual rating after 13 to 15 days, scale 0 (no effect) to 100 (complete control)
[20] = Preemergence, 500 g ai/ha, scale 0 to 100
[21] = postemergence, 125 g ai/ha, visual rating, scale 0 (no effect) to 100 (complete control)
[22] = preemergence, 125 g ai/ha, 0 to 100 scale, 0 is no effect, 100 is complete control
[23] = Postemergence, 500 g ai/ha, visual rating after 13 to 15 days
[24] = postemergence, 125 g ai/ha, visual rating

CCNC(=O)c1cc(NC(=O)c2cc(C(C)(C)C)nn2CC)ccc1C [Compound 68]
Plant response rating, Barnyardgrass [1, 19]: 0 | Barnyardgrass plant response rating [1, 20]: 10 | Barnyardgrass plant response rating [1, 21]: 0 | Plant response rating, Barnyardgrass [1, 22]: 0 | Plant response rating, Rice [2]: 0 | Plant response rating, Velvetleaf [3, 19]: 0 | Velvetleaf plant response rating [3, 21]: 0 | Plant response rating, Velvetleaf [3, 22]: 0 | Plant response rating, Morningglory [4, 19]: 0 | Morningglory plant response rating [4, 21]: 0 | Plant response rating, Morningglory [4, 22]: 20 | Barnyardgrass plant response rating [5]: 0 | Plant response rating, Lambsquarters [6, 19]: 10 | Lambsquarters plant response rating [6, 21]: 0 | Plant response rating, Lambsquarters [6, 22]: 20 | Plant response rating, Wheat [7, 23]: 0 | Wheat plant response rating [7, 24]: 0 | Plant response rating, Surinam Grass [8, 19]: 0 | Surinam Grass plant response rating [8, 21]: 0 | Plant response rating, Surinam Grass [8, 22]: 0 | Rice plant response rating [9]: 0 | Plant response rating, Crabgrass, Large [10, 19]: 0 | Crabgrass, Large plant response rating [10, 20]: 0 | Crabgrass, Large plant response rating [10, 21]: 0 | Plant response rating, Crabgrass, Large [10, 22]: 0 | Plant response rating, Foxtail, Giant [11, 19]: 0 | Foxtail, Giant plant response rating [11, 20]: 0 | Foxtail, Giant plant response rating [11, 21]: 0 | Plant response rating, Foxtail, Giant [11, 22]: 0 | Plant response rating, Blackgrass [12, 23]: 20 | Blackgrass plant response rating [12, 24]: 10 | Plant response rating, Oat, Wild [13, 23]: 20 | Oat, Wild plant response rating [13, 24]: 10 | Ducksalad plant response rating [14]: 0 | Plant response rating, Pigweed [15, 19]: 30 | Pigweed plant response rating [15, 21]: 10 | Plant response rating, Pigweed [15, 22]: 70 | Sedge, Umbrella plant response rating [16]: 0 | Plant response rating, Cocklebur [17, 19]: 10 | Cocklebur plant response rating [17, 20]: 0 | Cocklebur plant response rating [17, 21]: 10 | Plant response rating, Cocklebur [17, 22]: 0 | Plant response rating, Corn [18, 19]: 0 | Corn plant response rating [18, 20]: 0 | Corn plant response rating [18, 21]: 0 | Plant response rating, Corn [18, 22]: 0
